Laboratory results as given in patent US12378508B2, “Organ-on-chips that mimic human pregnancy and parturition” (The Texas A&M University System, priority 2020, dated 2025).

Legend:
[1] = tested on: maternal decidua (DECI) chamber; experiment: LPS induced inflammation propagation in FMI-OOC, cytokines in cell supernatant; assay type: cell-based
Protocol: (§1) FIG. 12A illustrates after lipopolysaccharide (LPS) treatment in the AEC chamber for 24, 48, or 72 hours, cell supernatants were collected from each cell chamber within the FMI-OOC to document LPS induced inflammation propagation. LPS induced an increase in AEC IL-8 production at 24 and 48 hours, which reached the maternal decidua chamber by 72 hours, causing an increase in IL-8. Documenting LPS induced fetal inflammation can reach the maternal compartment in 72 hours within an FMI-OOC device.
(§2) FIG. 12B illustrates after LPS treatment in the maternal decidua (DECI) chamber for 24, 48, or 72 hours, cell supernatants were collected from each cell chamber within the FMI-OOC to document LPS induced inflammation propagation. LPS induced an increase in DECI IL-6 production at 24, which reached the fetal AEC chamber by 24 hours, causing a rise in IL-8 that increased over 72 hours. Documenting LPS induced maternal inflammation can reach the fetal compartment in 72 hours within an FMI-OOC device.
(§3) The device described here expands the previously described two-chamber coculture model into a four-chamber coculture model to include both fetal and maternal cell components. The fetal membrane-decidua interface model (FMI-OOC) composed of four coculture compartments interconnected through arrays of microfluidic channels (FIG. 10 and FIG. 11). Here, three cell types from the fetal side (AEC, AMC, chorion mesenchymal cells (CMC)/chorion trophoblast (CT)) and one from the maternal side (decidua cells) were used, establishing the first OOC model that contains both fetal and maternal cells. Cell loading concentration into each chamber mimicked those of in utero cell ratios of the fetal membrane tissue. The microfluidic channel array prevents cells from flowing into the neighboring compartments during initial cell loading, allow localized drug treatment of each cell layer, and allow taking supernatant from each layer independently for local biochemical analysis. At the same time, these channels allow biochemicals to diffuse between the layers, and also permit cell migration and transition.

AEC chamber = experiment: as above; assay type: cell-based
Protocol: as §1, §2, §3

[2] = tested on: amnion epithelial cells (AECs); experiment: Cell migration through type IV collagen-filled microchannels of AM-OOC (bright field microscopy); assay type: cell-based, human; conditions: coculture, OS (CSE) cotreatment in both chambers
Description: Before using the AM-OOC, devices were washed 3 times with PBS and coated with Matrigel as previously described. The next day, devices were washed 3 times with complete DMEM-F12 medium before cell seeding. Primary cells were then trypsinized and stained with live cell dyes for green fluorescent protein (GFP) (for AEC; CellLight Histone 2B-GFP) or red fluorescent protein (RFP) (for AMC; CellLight Histone 2B-RFP) following the protocol provided by the company (10594 and 10595; Thermo Fisher Scientific, Waltham, MA, USA). Then, 120,000 AECs were loaded into the outer chamber, and 40,000 AMCs were loaded into the inner chamber of the AM-OOC. The AM-OOCs were incubated at 37° C. with 5% CO2 for 24 h before localized treatment (see next section).
To test the effect of OS on cellular transition in the amnion membrane, each AM-OOC was treated with one of the following for 48 h: 1) normal cell culture conditions (control DMEM-F12 medium); 2) OS conditions [induced by treating cells with cigarette smoke extract (CSE)] diluted 1:25 in AEC medium or diluted 1:75 in AMC medium; and 3) to verify the effect of OS, cells were cotreated with an OS inducer (CSE) and an antioxidant or stress signaler p38 MAPK inhibitor [N-acetyl-L-cysteine (NAC, 15 mM, A7250; MilliporeSigma] (23, 29) and SB203580 ([…], S8307; MilliporeSigma) (23, 29), a p38 MAPK inhibitor and a known inducer of EMT. […]

Row | Compound | IL-8 in maternal decidua chamber ([1]; LPS treatment in the AEC chamber, by 72 hours) | DECI IL-6 production ([1]; LPS treatment in the maternal decidua (DECI) chamber, at 24) | AEC IL-8 production (AEC chamber; LPS treatment in the AEC chamber, at 24 and 48 hours) | IL-8 in fetal AEC chamber (AEC chamber; LPS treatment in the maternal decidua (DECI) chamber, from 24 hours, increased over 72 hours) | effect on OS cotreatment-induced AEC transition, blocked migration and increased inflammation [2]
1 | lipopolysaccharide [LPS] | increase | increase | increase | rise | 
2 | CC(=O)N[C@@H](CS)C(=O)O [NAC, N-acetyl-L-cysteine] |  |  |  |  | prevented
